# In paper PMC7612312 (Nature chemical biology, 2019):
# System: clathrin heavy chain (CHC; antibody recognises both CHC1 and CHC2)
# Assay: CETSA
# Type: biochemical, Arabidopsis thaliana
compound,measurement,value
"O=S(=O)(Nc1ccccc1)c1ccc(Br)s1 [compound 14, ES9-17]",EC50,123 ± 1.13 µM
